Results: patent US4348393A, “N-Aryl oxazolidinones, oxazolidinethiones, pyrrolidinones, pyrrolidines and thiazolidinones” (Delalande S.A., priority 1978, dated 1982)

Key:
[1] = system: generalized trembling caused by dl-5-hydroxytryptophane; assay: Test A: potentiation in mice of generalized trembling caused by dl-5-hydroxytryptophane; format: in vivo; details: Mus musculus, po, mice, potentiation of trembling by dl-5-hydroxytryptophane 200 mg/kg interperitoneal, read-out: Test A ED 50
Description: Test A: Potentiation in mice of generalized trembling caused by an interperitoneal injection (200 mg/kg) of dl-5-hydroxytryptophane, following the protocol described by C. GOURET and G. RAYNAUD in J. Pharmacol. (Paris), (1974), 5, 231.

[2] = system: ptosis observed one hour after reserpine; assay: Test B: antagonism of reserpine-induced ptosis in mice; format: in vivo; details: Mus musculus, 1 h, po, antagonism of ptosis one hour after reserpine 2 mg/kg intravenous, read-out: Test B ED 50
Description: Test B: Antagonism with respect to the ptosis observed one hour after an intravenous injection (2 mg/kg) of reserpine given to mice, following the protocol described by C.

Toxicity LD50 mouse = details: in vivo, po, read-out: Toxicity LD 50

Row | Compound | ED50 [1] [mg/kg] | ED50 [2] [mg/kg] | LD50 (Toxicity LD50 mouse) [mg/kg]
1 | CCC(=O)OCC1CN(c2ccc(OCc3cccc([N+](=O)[O-])c3)cc2)C(=S)O1 (stereo not drawn) [compound 208] | 10 | 4.2 | > 1000
2 | NCC1CN(c2ccc(OCc3cc(Cl)cc([N+](=O)[O-])c3)cc2)C(=O)O1 (stereo not drawn) [compound 207] | 9.1 | 7.6 | > 1000
3 | COCC1CN(c2ccc(CCc3ccccc3)cc2)C(=O)O1 (stereo not drawn) [compound 192] | 5.8 | 6 | > 1000
4 | CN(C)CC1CN(c2ccc(OCc3cccc(C#N)c3)cc2)C(=O)O1 (stereo not drawn) [compound 206] | 6 | 4.3 | > 1000
5 | COCC1CN(c2ccc(OCC3CCCOC3)cc2)C(=O)O1 (stereo not drawn) [compound 182] | 3.7 | 5.8 | > 1000
6 | CNCC1CN(c2ccc(OCc3cccc([N+](=O)[O-])c3)cc2)C(=O)O1 (stereo not drawn) [compound 85] | 3 | 2 | 1000
7 | COCC1CN(c2ccc(OCC3CCCC3)cc2)C(=S)O1 (stereo not drawn) [compound 211] | 2 | 1.2 | 1000
8 | COCC1CN(c2ccc(OCCC#N)cc2)C(=O)O1 (stereo not drawn) [compound 52] | 1.2 | – | > 2000
9 | COC[C@@H]1CN(c2ccc(OCc3cccc(C#N)c3)cc2)C(=O)O1 [compound 200] | 1.7 | – | > 1000
10 | CC(=O)OCC1CN(c2ccc(OCCC(C)C)cc2)C(=O)O1 (stereo not drawn) [compound 123] | 2 | 1.4 | > 2000
11 | O=C1CC(CO)CN1c1ccc(OCc2cccc([N+](=O)[O-])c2)cc1 (stereo not drawn) [compound 99] | 50 | 30 | > 2000
12 | COCC1CN(c2ccc(OCC3CCC3)cc2)C(=O)O1 (stereo not drawn) [compound 183] | 1.9 | 2.4 | > 1000
13 | COCC1CN(c2ccc(/C=C/c3cccc(Cl)c3)cc2)C(=O)O1 (stereo not drawn) [compound 190] | 1 | 0.23 | > 1000
14 | N#CCCCCOc1ccc(N2CC(CO)OC2=S)cc1 (stereo not drawn) [compound 215] | 6.2 | 10 | > 1000
15 | O=C(COc1ccccc1)OCC1CN(c2ccc(OCc3cccc([N+](=O)[O-])c3)cc2)C(=O)O1 (stereo not drawn) [compound 178] | 33 | 28 | > 1000
16 | COCC1CN(c2ccc(OCC=C(C)C)cc2)C(=O)O1 (stereo not drawn) [compound 185] | 12 | 7 | > 1000
17 | COCC1CN(c2ccc(OCc3cc(C#N)cc([N+](=O)[O-])c3)cc2)C(=S)O1 (stereo not drawn) [compound 218] | 7.2 | 13.5 | > 1000
18 | COC[C@H]1CN(c2ccc(OCc3cccc(C#N)c3)cc2)C(=O)O1 [compound 199] | 0.31 | – | > 1000
19 | O=C1OC(CN2CCOCC2)CN1c1ccc(OCc2cccc([N+](=O)[O-])c2)cc1 (stereo not drawn) [compound 202] | 10 | 10 | > 1000
20 | CCCCCCCCC(=O)OCC1CN(c2ccc(OCc3cccc(C#N)c3)cc2)C(=O)O1 (stereo not drawn) [compound 133] | 6 | 5.2 | –
21 | CCC(=O)OCC1CN(c2ccc(OCc3cccc(Cl)c3)cc2)C(=O)O1 (stereo not drawn) [compound 31] | 6.5 | 3.6 | –
22 | COCC1CN(c2ccc(OCC3CCC(=O)CC3)cc2)C(=O)O1 (stereo not drawn) [compound 188] | 0.3 | 0.4 | –
23 | CC(=O)OCC1CN(c2ccc(OCc3cccc([N+](=O)[O-])c3)cc2)C(=S)O1 (stereo not drawn) [compound 117] | 1.2 | 1.5 | –
24 | CC(C)CCOCC1CN(c2ccc(OCc3cccc([N+](=O)[O-])c3)cc2)C(=O)O1 (stereo not drawn) [compound 158] | 6 | 6 | –
25 | CCCCCCCCC(=O)OCC1CN(c2ccc(OCC3CCCCC3)cc2)C(=O)O1 (stereo not drawn) [compound 122] | 6.8 | 6.2 | –
26 | CCCCOc1ccc(N2CC(CNC)OC2=O)cc1 (stereo not drawn) [compound 74] | 4 | 6.2 | –
27 | COCC1CN(c2ccc(OCc3cccc(Cl)c3)cc2)C(=O)O1 (stereo not drawn) [compound 59] | 3.4 | 3.1 | –
28 | C=CCOCC1CN(c2ccc(OCc3cccc([N+](=O)[O-])c3)cc2)C(=O)O1 (stereo not drawn) [compound 71] | 1 | 0.8 | –

Row | Compound | ED50 [1] [mg/kg] | ED50 [2] [mg/kg] | LD50 (Toxicity LD50 mouse) [mg/kg]
29 | CCCCOc1ccc(N2CC(COC)OC2=O)cc1 (stereo not drawn) [compound 46] | 1.5 | 2 | –
30 | CCCCOc1ccc(N2CC(COC(C)=O)OC2=O)cc1 (stereo not drawn) [compound 11] | 4.2 | 6.2 | –
31 | CCOCC1CN(c2ccc(OCc3cccc(C#N)c3)cc2)C(=O)O1 (stereo not drawn) [compound 167] | 3.7 | 3 | –
32 | CCOCC1CN(c2ccc(OCc3ccccc3)cc2)C(=O)O1 (stereo not drawn) [compound 154] | 19 | 17.5 | –
33 | CCCOCC1CN(c2ccc(OCc3cccc(Cl)c3)cc2)C(=O)O1 (stereo not drawn) [compound 153] | 3.8 | 4 | –
34 | CCCCC(=O)OCC1CN(c2ccc(OCC3CCCC3)cc2)C(=O)O1 (stereo not drawn) [compound 16] | 1.7 | 1.5 | –
35 | CC(C)(C)C(=O)OCC1CN(c2ccc(OCc3ccccc3)cc2)C(=O)O1 (stereo not drawn) [compound 27] | 25 | 44 | –
36 | OCC1CN(c2ccc(OCC3CCCCC3)cc2)C(=S)O1 (stereo not drawn) [compound 90] | 3 | 8 | –
37 | COCC1CN(c2ccc(OCc3ccc(Cl)c(Cl)c3)cc2)C(=O)O1 (stereo not drawn) [compound 164] | 3.4 | 3.4 | –
38 | COCC1CN(c2ccc(/C=C/c3cccc(C#N)c3)cc2)C(=O)O1 (stereo not drawn) [compound 196] | – | 0.55 | > 1000
39 | COCC1CN(c2ccc(OCc3cc(Cl)cc(Cl)c3)cc2)C(=O)O1 (stereo not drawn) [compound 166] | 3.8 | 3.4 | –
40 | CC(C)OCC1CN(c2ccc(OCC3CCCC3)cc2)C(=O)O1 (stereo not drawn) [compound 50] | 17.5 | 15 | –
41 | CC(C)C(=O)OCC1CN(c2ccc(OCc3ccccc3)cc2)C(=O)O1 (stereo not drawn) [compound 25] | 15 | 25 | –
42 | CC(C)CCOc1ccc(N2CC(COC(=O)C3CCCCC3)OC2=O)cc1 (stereo not drawn) [compound 129] | 7.5 | 12 | –
43 | O=C(OCC1CN(c2ccc(OCc3cccc([N+](=O)[O-])c3)cc2)C(=O)O1)c1ccccc1 (stereo not drawn) [compound 43] | 15 | 17.5 | –
44 | CCCCOc1ccc(N2CC(COC(=O)C(C)(C)C)OC2=O)cc1 (stereo not drawn) [compound 12] | 4.6 | 6 | –
45 | N#Cc1cccc(COc2ccc(N3CC(CO)OC3=S)cc2)c1 (stereo not drawn) [compound 97] | 3.9 | 3.2 | –
46 | COCC1CN(c2ccc(OCCCCC#N)cc2)C(=O)O1 (stereo not drawn) [compound 112] | 0.1 | 0.15 | –
47 | COCC1CN(c2ccc(OCC3CCOCC3)cc2)C(=O)O1 (stereo not drawn) [compound 144] | 2.2 | 1.1 | –
48 | CCC(=O)OCC1CN(c2ccc(OCC3CCCC3)cc2)C(=O)O1 (stereo not drawn) [compound 14] | 2 | 3.1 | –
49 | COCC1CN(c2ccc(OCc3ccc(F)c(Cl)c3)cc2)C(=O)O1 (stereo not drawn) [compound 163] | 1.15 | 8 | –
50 | CCOCC1CN(c2ccc(OCCC#N)cc2)C(=O)O1 (stereo not drawn) [compound 147] | 1.5 | 2.6 | –
51 | CCOCC1CN(c2ccc(OCC3CCCC3)cc2)C(=O)O1 (stereo not drawn) [compound 146] | 5 | 12.5 | –
52 | OCC1CN(c2ccc(OCc3cccc(Cl)c3)cc2)C(=S)O1 (stereo not drawn) [compound 93] | 9 | 6 | –
53 | CCCOCC1CN(c2ccc(OCc3ccccc3)cc2)C(=O)O1 (stereo not drawn) [compound 152] | 18 | 15.5 | –
54 | CCCCOc1ccc(N2CC(COC3CCCCC3)OC2=O)cc1 (stereo not drawn) [compound 48] | 50 | 50 | –
55 | CC(C)OCC1CN(c2ccc(OCc3cccc([N+](=O)[O-])c3)cc2)C(=O)O1 (stereo not drawn) [compound 62] | 3.6 | 2.4 | –
